Source: patent US7179615B1 (priority 1997, dated 2007)

Columns and labels:
[1] = system: cytoadherence of P. falciparum parasitised red cells to C32 melanoma cells; experiment: C32 melanoma cell cytoadherence assay with SNO-cysteine-treated parasitised red cells; assay type: cell-based, Plasmodium falciparum; settings: Expt 5: JR strain, SNO-cysteine final concentration 5 mM, 40 minutes, parasitised red cells resuspended in 2% w/v borate
VCAM-1 = settings: 0.2 mmol/l, 24 hours in conjunction with IL-1; cited from earlier work
endothelial cells = settings: 0.2 mmol/l, 24 hours in conjunction with IL-1; cited from earlier work

Compound	binding (cytoadherence to C32 melanoma cells) [1] [%]	inhibition of VCAM-1 (VCAM-1)	endothelial toxicity (endothelial cells)
N[C@@H](CSN=O)C(=O)O [SNO-cysteine]	0		
N[C@@H](CCC(=O)N[C@@H](CSN=O)C(=O)NCC(=O)O)C(=O)O [SNO-glutathione]		maximal inhibition of VCAM-1	minimal endothelial toxicity
